Results published in patent US4640916A, “1,4-benzothiazine derivatives, compositions containing them and method of use” (priority 1984, dated 1987).

What was measured:
[1] = tested on: contraction depending on intracellular Ca^++; assay: Intracellular Ca++ antagonism: inhibition of phenylephrine contraction of aorta strip in Ca++-free EGTA solution; type: cell-based, rabbit; conditions: Oryctolagus cuniculus; compound 10^-4 M; phenylephrine 10^-6 M; Ca++ 0 mM, EGTA 5 mM; read-out: Inhibitory percent (contraction depending on intracellular Ca++)
Method: A spiral strip of aorta of a rabbit (2-3 mm width, about 3 cm length) was allowed to equilibrate by hanging under 2 g force in a Krebs-Henseleit solution. The solution was saturated with a mixture gas 97% O2 --3% CO2, which was warmed to 37° C. The strip was moved into another Krebs-Henseleit solution containing Ca^++ OmM and EGTA 5 mM. Five minutes later, phenylephrine (10^-6 M) was added on the solution. The resulting contraction of the strip was made as the index of the contraction depending on intracellular Ca^++.

[2] = tested on: intracellular Ca^++; conditions: (2) Ca++ from intracellular store site; (3) Ca++ through receptor-dependent channel; cited from earlier work
[3] = cited from earlier work

**Q.** Which results are given for `CCN(CC)CCCCCCCCOC(=O)c1cc(OC)c(OC)c(OC)c1` [TMB-8]?
**A.** inhibition at 100 µM [1]: 58%; Action on intracellular Ca++ (in words) [2]: weak in their action; Antihypertensive action in vivo (in words) [3]: do not display antihypertensive action in vivo
